The values below come from patent US20230085307A1, “PYRIDAZINONE COMPOUND AND HERBICIDE” (NISSAN CHEMICAL CORPORATION, priority 2019, published 2023).

Each structure is given as a SMILES string.

Assay [1] concerns persian speedwell. The experiment in a line: Test Example 5: herbicidal effect by foliage application, plastic box (Table 20, symbol R). The assay is classed as in vivo, Persian speedwell (Veronica persica). The procedure, abridged: (§1)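 Sow seeds spot-wise in sterilized diluvial soil; cover with ~1.5 cm soil. Grow 14 days in greenhouse, 25° C. to 30° C. Spray foliage with emulsion diluted to predetermined amount. Rate effect after 3 weeks.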

The test system of assay [2] is southern crabgrass. The experiment in a line: Test Example 5: herbicidal effect by foliage application, plastic box (Table 20, symbol F). The assay is classed as in vivo, southern crabgrass (Digitaria ciliaris). In outline:
as §1

Assay [3] deals with lambsquarters. The experiment in a line: Test Example 5: herbicidal effect by foliage application, plastic box (Table 20, symbol O). In kind it is in vivo, lambsquarters (Chenopodium album). The procedure, abridged: as §1
The test system of assay [4] is barnyard grass. The experiment in a line: Test Example 3: herbicidal effect by foliage application, Wagner pot (Table 18, symbol H). As to conditions: 320 g/ha. The assay is classed as in vivo, barnyard grass (Echinochloa crus-galli). In outline: (§2)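 Plants were sown in alluvial soil held under 0.1–0.5 cm standing water and grown 14 days in a greenhouse at 25–30 °C. An emulsifiable formulation, water-diluted to the set dose, was then sprayed onto the foliage, and effects were scored three weeks later using previously defined criteria.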

In assay [5] the test system is barnyard grass. Kind of assay: Test Example 5: herbicidal effect by foliage application, plastic box (Table 20, symbol H). In kind it is in vivo, barnyard grass (Echinochloa crus-galli). The procedure, abridged: as §1
The test system of assay [6] is velvetleaf. The experiment in a line: Test Example 5: herbicidal effect by foliage application, plastic box (Table 20, symbol M). In kind it is in vivo, velvetleaf (Abutilon theophrasti). In outline: as §1
The test system of assay [7] is green foxtail. Kind of assay: Test Example 5: herbicidal effect by foliage application, plastic box (Table 20, symbol G). The assay is classed as in vivo, green foxtail (Setaria viridis). In outline: as §1
The test system of assay [8] is rice flat sedge. Kind of assay: Test Example 3: herbicidal effect by foliage application, Wagner pot (Table 18, symbol E). The assay is classed as in vivo, rice flat sedge (Cyperus iria). As to conditions: 320 g/ha. The procedure, abridged:
as §2

Assay [9] has as its system windgrass. The experiment in a line: Test Example 5: herbicidal effect by foliage application, plastic box (Table 20, symbol L). In kind it is in vivo, windgrass (Apera spica-venti). The procedure, abridged: as §1
The subject of assay [10] is wild oat. Kind of assay: Test Example 5: herbicidal effect by foliage application, plastic box (Table 20, symbol I). The assay is classed as in vivo, wild oat (Avena fatua). The procedure, abridged:
as §1

Assay [11] relates to blackgrass. Kind of assay: Test Example 5: herbicidal effect by foliage application, plastic box (Table 20, symbol J). In kind it is in vivo, blackgrass (Alopecurus myosuroides). In outline: as §1
The subject of assay [12] is Italian ryegrass. Kind of assay: Test Example 5: herbicidal effect by foliage application, plastic box (Table 20, symbol K). The assay is classed as in vivo, Italian ryegrass (Lolium multiflorum). The procedure, abridged:
as §1

The test system of assay [13] is redroot pigweed. Kind of assay: Test Example 5: herbicidal effect by foliage application, plastic box (Table 20, symbol N). The following applies: amount of applied herbicide 320 g/ha; foliage application after 14-day growth; evaluated three weeks after application. In kind it is in vivo, redroot pigweed (Amaranthus retroflexus). The source says: [Test Example 5] Herbicidal Effect Test by Foliage Application
Sterilized diluvial soil was placed in a plastic box having a length of 21 cm, a width of 13 cm, and a depth of 7 cm. The seeds of each of southern crabgrass, green foxtail, barnyard grass, wild oat, blackgrass, Italian ryegrass, windgrass, velvetleaf, redroot pigweed, lambsquarters, chickweed, false cleavers, persian speedwell, corn, soybean, rice, wheat, beet, and rapeseed were sowed in a spot-like manner and covered with the soil having a thickness of about 1.5 cm. Thereafter, the plants were grown in a greenhouse at 25° C. to 30° C. After 14-day growth of the plants, the emulsion agent of the compound of the present invention prepared according to Formulation Example 2 was diluted with water so as to achieve a predetermined herbicide amount, and the diluted emulsion agent was uniformly applied to a foliage part with a small-sized spray. Three weeks after the herbicide application, the effect of the herbicide on each plant was evaluated according to the criteria of Test Example 1.

Assay [14] has as its system Chinese sprangletop. Kind of assay: Test Example 3: herbicidal effect by foliage application, Wagner pot (Table 18, symbol D). The assay is classed as in vivo, chinese sprangletop (Leptochloa chinensis). The following applies: 320 g/ha. The procedure, abridged:
as §2

The mark [15] stands for this setting: amount of applied herbicide 320 g/ha, foliage application after 14-day growth, evaluated three weeks after application.
[16] abbreviates: foliage application, 320 g/ha, three weeks after application.

For the compound `COCc1ccccc1-c1sc2c(Cl)cccc2c1-c1c(O)c(C)nn(C)c1=O` [4-081], the “Herbicidal effect by foliage application, R: persian speedwell” value in assay [1] (setting [15]) was 1 (Herbicidal rate of 5% or more and less than 20%). Besides, in assay [2] (setting [15]), the “Herbicidal effect by foliage application, F: southern crabgrass” value was 0 (Herbicidal rate of 5% or less (almost no effect)). In [3] (setting [15]), the “Herbicidal effect by foliage application, O: lambsquarters” value is 1 (Herbicidal rate of 5% or more and less than 20%). Besides, in [4], the “herbicidal effect on barnyard grass (H)” value is 3 (Herbicidal rate of 40% or more and less than 70%). In addition, the “Herbicidal effect by foliage application, H: barnyard grass” value in assay [5] (setting [15]) is 3 (Herbicidal rate of 40% or more and less than 70%). For the same compound, the “Herbicidal effect by foliage application, M: velvetleaf” value in [6] (setting [15]) is 3 (Herbicidal rate of 40% or more and less than 70%). Also, the “Herbicidal effect by foliage application, G: green foxtail” value in assay [7] (setting [15]) was 3 (Herbicidal rate of 40% or more and less than 70%). The “herbicidal effect on rice flat sedge (E)” value in assay [8] is on record as 0 (Herbicidal rate of 5% or less (almost no effect)). Further, the “Herbicidal effect by foliage application, L: windgrass” value in [9] (setting [15]) is listed as 0 (Herbicidal rate of 5% or less (almost no effect)). Besides, the “Herbicidal effect by foliage application, I: wild oat” value in assay [10] (setting [15]) was 0 (Herbicidal rate of 5% or less (almost no effect)). The “Herbicidal effect by foliage application, J: blackgrass” value in [11] (setting [15]) was 0 (Herbicidal rate of 5% or less (almost no effect)). Also, in [12] (setting [15]), the “Herbicidal effect by foliage application, K: Italian ryegrass” value was 0 (Herbicidal rate of 5% or less (almost no effect)). Further, in [13], the “Herbicidal effect by foliage application, N: redroot pigweed” value is 1 (Herbicidal rate of 5% or more and less than 20%). The “herbicidal effect on Chinese sprangletop (D)” value in assay [14] is given as 0 (Herbicidal rate of 5% or less (almost no effect)).

Consider `COc1ccc(-c2sc3cc(C)c(C)cc3c2-c2c(O)c(C)nn(C)c2=O)cc1` [5-092], for which, in assay [1] (setting [16]), the “herbicidal effect on persian speedwell (R)” value is 4 (Herbicidal rate of 70% or more and less than 90%). In addition, in assay [2] (setting [16]), the “herbicidal effect on southern crabgrass (F)” value is recorded as 0 (Herbicidal rate of 5% or less (almost no effect)). The “herbicidal effect on lambsquarters (O)” value in [3] (setting [16]) is recorded as 0 (Herbicidal rate of 5% or less (almost no effect)). The “herbicidal effect on barnyard grass (H)” value in [4] was 2 (Herbicidal rate of 20% or more and less than 40%); in assay [5] (setting [16]), 0 (Herbicidal rate of 5% or less (almost no effect)). Besides, the “herbicidal effect on velvetleaf (M)” value in assay [6] (setting [16]) is 0 (Herbicidal rate of 5% or less (almost no effect)). Besides, the “herbicidal effect on green foxtail (G)” value in assay [7] (setting [16]) was 0 (Herbicidal rate of 5% or less (almost no effect)). For the same compound, the “herbicidal effect on rice flat sedge (E)” value in [8] is recorded as 0 (Herbicidal rate of 5% or less (almost no effect)). The “herbicidal effect on windgrass (L)” value in assay [9] (setting [16]) is on record as 0 (Herbicidal rate of 5% or less (almost no effect)). Further, the “herbicidal effect on wild oat (I)” value in assay [10] (setting [16]) is listed as 0 (Herbicidal rate of 5% or less (almost no effect)). Further, the “herbicidal effect on blackgrass (J)” value in assay [11] (setting [16]) was 0 (Herbicidal rate of 5% or less (almost no effect)). Further, in assay [12] (setting [16]), the “herbicidal effect on Italian ryegrass (K)” value is on record as 0 (Herbicidal rate of 5% or less (almost no effect)). Also, the “herbicidal effect on Chinese sprangletop (D)” value in assay [14] is on record as 0 (Herbicidal rate of 5% or less (almost no effect)).
